PMC12516379, “Rotamer-Controlled Self-Immolative Linkers Enable Tunable Release of Neurosteroid Oxime Prodrugs” (ACS Medicinal Chemistry Letters, 2025)

Key:
[1] = Stability in acetate buffer pH 5.0 at room temperature via HPLC (UV); type: physicochemical
Experimental: (§1) Stability studies were conducted in PBS and acetate buffer utilizing high performance liquid chromatography for potential drug storage considerations. […]
(§2) All experiments were performed in duplicate and results are presented as the average of two experimental replicates.
(§3) 1.1 Aqueous Stability in PBS and Acetate Buffer via HPLC
(§4) Material and Instrumentation
(§5) HPLC grade acetonitrile (MeCN) […] HPLC grade water (H 2O), and formic acid (FA) were purchased from Fisher Scientific.
(§6) Puradisc 4 mm PTFE (0.45 μm) syringe filters from Cytiva. Gibco ® Dulbecco’s phosphate-buffered saline (DPBS 1X, no calcium, no magnesium, pH = 7.03) and acetate buffer (pH = 5.0, 10 mM) were purchased directly from Thermo Fisher Scientific and Cytiva, respectively.
(§7) Aqueous stability experiments were performed on an Agilent 1100 HPLC equipped with an Agilent G1315B diode array detector, an Agilent G1316A heated column compartment, and a Zorbax Eclipse XDB-C18 (4.6 x 150 mm, 5 μm) column.
(§8) Procedure for Aqueous Stability Experiments
(§9) Each sample was first weighed out in two separate 2.0 mL vials using an analytical balance.
(§10) Unless otherwise specified, the test compounds were then dissolved in the aqueous media (PBS or acetate buffer) at a standard concentration of 1 mg/mL. All mixtures were subsequently sonicated for approximately 30 sec. […]
(§11) min), precipitates observed in sample solutions were filtered with a PTFE syringe filter prior to analysis. Immediately after sample preparation, injection by the HPLC autosampler was performed, which was recorded as the initial time point (t = 0 min). Solutions were then kept in the autosampler at RT and reinjected at designated intervals without additional filtration or sample modification. Remaining prodrug was defined by the area under the curve (AUC) at 254 nm. Aqueous stability was ascertained by calculating the percentage of the parent compound remaining after each time point. Linear regression of the time (x-axis) vs. ln(%remaining) (y-axis) plot afforded the rate constant k (slope = -k). Pseudo first-order half-lives were then calculated by the following equation: t1/2 = 0.693/k.

[2] = Aqueous solubility by visual inspection in acetate buffer (pH 5); settings: for solubility: sodium acetate buffer, pH 5, aqueous buffer, thermodynamic from solid; for Stability in aqueous media during solubility assessment, in words: aqueous media (acetate buffer)
Experimental: For the solubility assessment, acetate buffer (pH 5) was selected as the media of choice to ensure prodrug stability during analysis.
High aqueous solubility was determined by visual inspection of 5 mg solid material in 0.5 mL
sodium acetate buffer solution. This media was selected to ensure stability of prodrugs during
dissolution in 50 mg/mL aqueous media.

[3] = Stability in PBS at room temperature via HPLC (UV); type: physicochemical; settings: phosphate-buffered saline (DPBS)
Experimental: as §1, §2, §3, §4, §5, §6, §7, §8, §9, §10, §11

[4] = PBS stability assay at 37 °C via LC-MS/MS; type: physicochemical; settings: for half-life at 3 µM: phosphate-buffered saline (DPBS), pH 7.03, PBS; for PBS, 37 °C %rem. at 2h (Table S23) / half-life at 3 µM: 37 °C; for PBS, 37 °C %rem. at 2h (Table S23) / Prodrug stability / self-immolation in buffer, in words: PBS
[5] = Plasma stability assay at 37 °C via LC-MS/MS, human plasma; type: in vitro ADME; settings: for half-life at 3 µM: human, plasma;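 for all read-outs here: prodrugs at 3 µM incubated in human plasma at 37 °C, intact prodrug quantified by LC-MS/MS over time, values are means of duplicate runs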
Experimental: To address this, prodrug stability was further evaluated in human plasma at 37 °C using liquid chromatography–tandem mass spectrometry (LC-MS/MS). For direct comparison, a parallel screen was conducted in PBS under identical conditions (Table ). To prevent premature degradation prior to LC-MS/MS analysis, acetonitrile containing formic acid was used as a quenching solution to acidify and stabilize the prodrugs in vials. […] This limitation in detection, along with the need for a more uniform and broadly applicable assessment across all compounds, prompted us to monitor the formation of the parent oxime as an alternative readout.
Stability experiments in human plasma and PBS were performed via liquid chromatography-tandem mass spectrometry (LC-MS/MS) to determine and compare rate of cleavage of progesterone prodrugs as well as selected allopregnanolone prodrugs (3 µM) when incubated at 37 °C. All experiments were performed in duplicate and results are presented as the average of two experimental replicates.

[6] = pH 5, acetate buffer pH 5.0, RT, 1 mg/mL, HPLC 254 nm, read-out: t1/2 in acetate buffer at RT (Tables S5-S8) (converted)
[7] = pH 5, acetate buffer pH 5.0, rt, read-out: t½: pH 5.0, rt (Table S23) (converted)
[8] = pH 7.03, DPBS pH 7.03, RT, 1 mg/mL, HPLC 254 nm, read-out: t1/2 in PBS buffer at RT (Tables S1-S4) (converted)
[9] = pH 7.03, PBS, rt, read-out: t½: PBS, rt (Table S23) (converted)
[10] = 3 µM, LC-MS/MS, read-out: t1/2 in PBS at 37 °C (Tables S14-S17) (converted)
[11] = read-out: PBS, 37 °C t½ (Table S23) (converted)
[12] = 3 µM, LC-MS/MS, read-out: t1/2 in human plasma at 37 °C (Tables S10-S13, S18) (converted)
[13] = read-out: Plasma, 37 °C t½ (Table S23) (converted)
[14] = LC-MS/MS, read-out: Half-life (t½) PBS 37°C (converted)
[15] = unit not given (h in Table S23), read-out: t1/2 of allopregnanolone prodrugs in PBS at 37 °C (Table S22) (converted)
[16] = LC-MS/MS, read-out: Half-life (t½) Plasma 37°C (converted)
[17] = unit not given (h in Table S23), read-out: t1/2 of allopregnanolone prodrugs in human plasma at 37 °C (Table S21) (converted)
[18] = pH 5, acetate buffer pH 5.0, rt, HPLC (UV), read-out: Half-life (t½) pH 5.0 rt (converted)
[19] = pH 7.03, PBS, rt, HPLC (UV), read-out: Half-life (t½) PBS rt (converted)

| Structure (SMILES) | half-life at 1 mg/mL [1, 6] | half-life at 1 mg/mL [1, 7] | solubility [2] | half-life at 1 mg/mL [3, 8] | half-life at 1 mg/mL [3, 9] | PBS, 37 °C %rem. at 2h (Table S23) [4] | half-life at 3 µM [4, 10] | half-life at 3 µM [4, 11] | Plasma, 37 °C %rem. at 2h (Table S23) [5] | half-life at 3 µM [5, 13] | half-life at 3 µM [4, 14] | half-life at 3 µM [4, 15] | half-life at 3 µM [5, 16] | half-life at 3 µM [5, 17] | further results |
| --- | --- | --- | --- | --- | --- | --- | --- | --- | --- | --- | --- | --- | --- | --- | --- |
| C/C(=N\OC(=O)N(CCO)CCNCCO)[C@H]1CC[C@H]2[C@@H]3CCC4=CC(=O)CC[C@]4(C)[C@H]3CC[C@]12C.Cl [20z] | > 168 h | > 168 h | > 10 mg/mL | 28.8 ± 3.16 h | 28.8 h | 78% | 6.27 h | 6.27 h | 71% | 2.3 h | – | – | – | – | half-life at 3 µM [5, 12]: 2.3 h |
| CNCCN(C)C(=O)O/N=C(\C)[C@H]1CC[C@H]2[C@@H]3CCC4C[C@H](O)CC[C@]4(C)[C@H]3CC[C@]12C.O=C(O)C(F)(F)F (stereo partly drawn) [21a] | – | – | > 5 mg/mL | – | – | 88% | – | 12.2 h | 13% | 0.59 h | 9.51 h | 12.2 h | 1.27 h | 0.59 h | – |
| CNC1(CN(C)C(=O)O/N=C(\C)[C@H]2CC[C@H]3[C@@H]4CCC5=CC(=O)CC[C@]5(C)[C@H]4CC[C@]23C)CC1 [20s] | – | – | > 10 mg/mL | – | – | 93% | 18.5 h | 18.5 h | stable | > 24 h | – | – | – | – | Prodrug stability / self-immolation in buffer, in words [4]: complete inhibition of cyclization; Half-life (t½) Plasma 37°C ([5]; LC-MS/MS): stable; half-life at 3 µM [5, 12]: > 24 h |
| C/C(=N\OC(=O)N(C)C[C@@H]1CC2(CC2)CN1)[C@H]1CC[C@H]2[C@@H]3CCC4=CC(=O)CC[C@]4(C)[C@H]3CC[C@]12C [20q] | > 168 h | > 168 h | > 10 mg/mL | 4.35 h | 4.35 h | 5% | 0.7 h | 0.7 h | 15% | 0.65 h | 0.7 h | – | 0.64 h | – | half-life at 1 mg/mL [1, 18]: > 168 h; half-life at 1 mg/mL [3, 19]: 4.35 h; half-life at 3 µM [5, 12]: 0.65 h |
| CNCCN(CCNC)C(=O)O/N=C(\C)[C@H]1CC[C@H]2[C@@H]3CCC4=CC(=O)CC[C@]4(C)[C@H]3CC[C@]12C.Cl.Cl [20x] | 72.2 h | > 168 h | – | 1.51 ± 0.05 h | 1.51 h | – | – | – | – | – | – | – | – | – | Stability in aqueous media during solubility assessment, in words [2]: poor stability |
| CNCCN(C(=O)O/N=C(\C)[C@H]1CC[C@H]2[C@@H]3CCC4C[C@H](O)CC[C@]4(C)[C@H]3CC[C@]12C)C(C)C.O=C(O)C(F)(F)F (stereo partly drawn) [21c] | – | – | > 5 mg/mL | – | – | 68% | – | 3.78 h | 16% | 0.76 h | 3.78 h | 3.78 h | 0.51 h | 0.51 h | – |
| CNCCN(C(=O)O/N=C(\C)[C@H]1CC[C@H]2[C@@H]3CCC4C[C@H](O)CC[C@]4(C)[C@H]3CC[C@]12C)C1CCC1.O=C(O)C(F)(F)F (stereo partly drawn) [21d] | – | – | > 5 mg/mL | – | – | 38% | – | 1.69 h | 16% | 0.76 h | 1.69 h | 1.69 h | 0.76 h | 0.76 h | – |
| CNCCN(CCN1CCOCC1)C(=O)O/N=C(\C)[C@H]1CC[C@H]2[C@@H]3CCC4=CC(=O)CC[C@]4(C)[C@H]3CC[C@]12C.O=C(O)C(F)(F)F [20j] | 99.4 h | 99.4 h | > 10 mg/mL | 21.77 ± 0.19 h | 21.8 h | – | – | – | – | – | – | – | – | – | half-life at 1 mg/mL [1, 18]: 99.4 h; half-life at 1 mg/mL [3, 19]: 21.8 h |
| CNCCN(CCn1ccnc1)C(=O)O/N=C(\C)[C@H]1CC[C@H]2[C@@H]3CCC4C[C@H](O)CC[C@]4(C)[C@H]3CC[C@]12C (stereo partly drawn) [21k] | – | – | > 5 mg/mL | – | – | 62% | – | 4.12 h | 14% | 0.81 h | – | 4.12 h | – | 0.81 h | – |
| C/C(=N\OC(=O)N(CCN)CCN)[C@H]1CC[C@H]2[C@@H]3CCC4=CC(=O)CC[C@]4(C)[C@H]3CC[C@]12C [20w] | > 168 h | > 168 h | > 10 mg/mL | 10.1 ± 0.41 h | 10.1 h | – | – | – | – | – | – | – | – | – | – |
| CNCCN(C(=O)O/N=C(\C)[C@H]1CC[C@H]2[C@@H]3CCC4C[C@H](O)CC[C@]4(C)[C@H]3CC[C@]12C)C1CC1.O=C(O)C(F)(F)F (stereo partly drawn) [21b] | – | – | > 5 mg/mL | – | – | 73% | – | 4.08 h | 16% | 0.73 h | 4.08 h | 4.08 h | 0.73 h | 0.73 h | – |
| C/C(=N\OC(=O)N(C)C[C@@H]1CCCN1)[C@H]1CC[C@H]2[C@@H]3CCC4C[C@H](O)CC[C@]4(C)[C@H]3CC[C@]12C (stereo partly drawn) [21l] | – | – | > 5 mg/mL | – | – | 16% | – | 0.94 h | 2% | 0.36 h | 0.94 h | 0.94 h | 0.36 h | 0.36 h | – |
| C/C(=N\OC(=O)N(C)[C@H](C)[C@@H]1CCCN1)[C@H]1CC[C@H]2[C@@H]3CCC4=CC(=O)CC[C@]4(C)[C@H]3CC[C@]12C.O=C(O)C(F)(F)F [20p] | – | – | – | – | – | – | 0.61 h | – | – | – | – | – | – | – | Stability in aqueous media during solubility assessment, in words [2]: poor stability; Prodrug stability / self-immolation in buffer, in words [4]: unstable compound; t1/2 in human plasma at 37 °C (Tables S10-S13, S18) ([5]; 3 µM, LC-MS/MS): unstable during |
